Source: PMC6133161, “Thiazoles with cyclopropyl fragment as antifungal, anticonvulsant, and anti-Toxoplasma gondii agents: synthesis, toxicity evaluation, and molecular docking study” (Medicinal Chemistry Research, 2018)
Converted amounts (≈) assume the structure as drawn.

The molecules below were run on C. pulcherrima (assay: Broth microdilution MIC/MFC, clinical isolate). Conditions: C. pulcherrima clinical strain; read-out: MFC.
Format: cell-based
Source text: (§1) In the study of antifungal activity of the compounds 3a–3j, 15 clinical strains of different species of yeasts from Candida species, namely C. albicans, C. dubliniensis C. famata, C. inconspicua, C. krusei, C. tropicalis, C. glabrata, C. lambica, C. kefyr, C. lusitaniae, C. parapsilosis, C. guilliermondii, C. lusitaniae, C. pulcherrima and C. sake were also used. These fungi were isolated by the author (from Department of Pharmaceutical Microbiology of Medical University in Lublin, Poland) from different clinical materials, e.g., from upper respiratory tract of hospitalized patients including cancer patients (i.e., with non-small cell lung cancer or hematological malignancies). Some patients were after pre-operative or post-operative chemotherapy (treated with etoposide or cis-platin given in doses according to the standard procedures), patients with chronic hepatitis C (undergoing peginterferon and ribavirin therapy or without antiviral therapy), patients with diabetes, elderly people, aged of 65 years old or older, staying in close population, such as a care centre and people staying outside the home care. The Ethical Committee of the Medical University of Lublin approved the study protocol (No. KE-0254/75/2011). The isolates were identified by standard diagnostic methods—biochemical microtest, e.g., API 20C AUX, ID 32C, API Candida (bioMérieux) on the basis of assimilation of various substrates. All the used microbial cultures were first subcultured on nutrient agar or Sabouraud agar for bacteria and fungi, respectively. The RPMI 1640 with MOPS (for fungi) were inoculated with the suspensions of fungal species. Microbial suspensions were prepared in sterile saline (0.85% NaCl) with an optical density of 0.5 McFarland standard scale (Wiegand et al. [2008]). Samples containing examined compounds were dissolved in dimethyl sulfoxide (DMSO). Furthermore, fungal suspensions were put onto Petri dishes with solid media containing 2 mg/ml of the tested compounds followed incubation under appropriate conditions. The inhibition of microbial growth was judged by comparison with a control culture prepared without any sample tested. Nystatin (Sigma) was used as a reference antifungal compound. Subsequently MIC minimal inhibitory concentration (MIC) of the compounds was examined by the microdilution broth method, using their two-fold dilutions in RPMI 1640 broth with MOPS prepared in 96-well polystyrene plates. Final concentrations of the compounds ranged from 1000 to 0.0038 µg/ml. Microbial suspensions were prepared in sterile saline with an optical density of 0.5 McFarland standard. Next fungal suspension was added per each well containing broth and various concentrations of the examined compounds. After incubation, the MIC was assessed spectrophotometric as the lowest concentration of the samples showing complete fungal growth inhibition. Appropriate DMSO, growth and sterile controls were carried out. The medium with no tested substances was used as a control (Wiegand et al. [2008]). The minimal fungicidal concentration (MFC) are defined as the lowest concentration of the compounds that is required to kill a particular fungal species. MFC was determined by removing the culture using for MIC determinations from each well and spotting onto appropriate agar medium. The plates were incubated. The lowest compounds concentration with no visible growth observed was assessed as a fungicidal concentration. All the experiments were repeated three times and representative data are presented.
(§2) The MFC/MIC ratios were calculated in order to determine fungicidal (MFC/MIC ≤ 4) or fungistatic (MFC/MIC > 4) effect of the tested compounds (O’Donnell et al. [2010]).

Row | SMILES | MFC
1 | Fc1ccc(-c2csc(N/N=C/C3CC3)n2)c(F)c1 [Compound 3g, (E)-2-(2-(Cyclopropylmethylene)hydrazinyl)-4-(2,4-difluorophenyl)thiazole] | > 1000 µg/mL

Same assay, conditions: C. pulcherrima clinical strain; read-out: MIC

Row | MIC | SMILES
2 | 250 µg/mL (≈ 895 µM) | Fc1ccc(-c2csc(N/N=C/C3CC3)n2)c(F)c1 [Compound 3g, (E)-2-(2-(Cyclopropylmethylene)hydrazinyl)-4-(2,4-difluorophenyl)thiazole]

These molecules were tested on C. lusitaniae (assay: Broth microdilution MIC/MFC, clinical isolate). Conditions: Clavispora lusitaniae; C. lusitaniae clinical strain; read-out: MFC.
Format: cell-based
Source text: as §1, §2

Row | SMILES | MFC
3 | Fc1ccc(-c2csc(N/N=C/C3CC3)n2)c(F)c1 [Compound 3g, (E)-2-(2-(Cyclopropylmethylene)hydrazinyl)-4-(2,4-difluorophenyl)thiazole] | 1.95 µg/mL (≈ 6.98 µM)

Same assay, conditions: Clavispora lusitaniae; C. lusitaniae clinical strain; read-out: MIC

Row | MIC | SMILES
4 | 0.48 µg/mL (≈ 1.72 µM) | Fc1ccc(-c2csc(N/N=C/C3CC3)n2)c(F)c1 [Compound 3g, (E)-2-(2-(Cyclopropylmethylene)hydrazinyl)-4-(2,4-difluorophenyl)thiazole]

Each molecule was assayed on C. parapsilosis (assay: Broth microdilution MIC/MFC, clinical isolate). Conditions: Lodderomyces parapsilosis; C. parapsilosis clinical strain; read-out: MFC.
Format: cell-based
Source text: as §1, §2

Row | SMILES | MFC
5 | Fc1ccc(-c2csc(N/N=C/C3CC3)n2)c(F)c1 [Compound 3g, (E)-2-(2-(Cyclopropylmethylene)hydrazinyl)-4-(2,4-difluorophenyl)thiazole] | 1.95 µg/mL (≈ 6.98 µM)

Same assay, conditions: Lodderomyces parapsilosis; C. parapsilosis clinical strain; read-out: MIC

Row | MIC | SMILES
6 | 0.98 µg/mL (≈ 3.51 µM) | Fc1ccc(-c2csc(N/N=C/C3CC3)n2)c(F)c1 [Compound 3g, (E)-2-(2-(Cyclopropylmethylene)hydrazinyl)-4-(2,4-difluorophenyl)thiazole]

Each molecule was assayed on C. dubliniensis (assay: Broth microdilution MIC/MFC, clinical isolate). Conditions: Candida dubliniensis; C. dubliniensis clinical strain; read-out: MFC.
Format: cell-based
Source text: as §1, §2

Row | SMILES | MFC
7 | Fc1ccc(-c2csc(N/N=C/C3CC3)n2)c(F)c1 [Compound 3g, (E)-2-(2-(Cyclopropylmethylene)hydrazinyl)-4-(2,4-difluorophenyl)thiazole] | 0.48 µg/mL (≈ 1.72 µM)

Same assay, conditions: Candida dubliniensis; C. dubliniensis clinical strain; read-out: MIC

Row | MIC | SMILES
8 | 0.24 µg/mL (≈ 0.859 µM) | Fc1ccc(-c2csc(N/N=C/C3CC3)n2)c(F)c1 [Compound 3g, (E)-2-(2-(Cyclopropylmethylene)hydrazinyl)-4-(2,4-difluorophenyl)thiazole]

The molecules below were run on C. famata (assay: Broth microdilution MIC/MFC, clinical isolate). Conditions: Debaryomyces hansenii; C. famata clinical strain; read-out: MFC.
Format: cell-based
Source text: as §1, §2

Row | SMILES | MFC
9 | Fc1ccc(-c2csc(N/N=C/C3CC3)n2)c(F)c1 [Compound 3g, (E)-2-(2-(Cyclopropylmethylene)hydrazinyl)-4-(2,4-difluorophenyl)thiazole] | 62.5 µg/mL (≈ 224 µM)

Same assay, conditions: Debaryomyces hansenii; C. famata clinical strain; read-out: MIC

Row | MIC | SMILES
10 | 7.81 µg/mL (≈ 28 µM) | Fc1ccc(-c2csc(N/N=C/C3CC3)n2)c(F)c1 [Compound 3g, (E)-2-(2-(Cyclopropylmethylene)hydrazinyl)-4-(2,4-difluorophenyl)thiazole]

These molecules were tested on C. tropicalis (assay: Broth microdilution MIC/MFC, clinical isolate). Conditions: Candida tropicalis; C. tropicalis clinical strain; read-out: MFC.
Format: cell-based
Source text: as §1, §2

Row | SMILES | MFC
11 | Fc1ccc(-c2csc(N/N=C/C3CC3)n2)c(F)c1 [Compound 3g, (E)-2-(2-(Cyclopropylmethylene)hydrazinyl)-4-(2,4-difluorophenyl)thiazole] | 0.98 µg/mL (≈ 3.51 µM)

Same assay, conditions: Candida tropicalis; C. tropicalis clinical strain; read-out: MIC

Row | MIC | SMILES
12 | 0.06 µg/mL (≈ 0.215 µM) | Fc1ccc(-c2csc(N/N=C/C3CC3)n2)c(F)c1 [Compound 3g, (E)-2-(2-(Cyclopropylmethylene)hydrazinyl)-4-(2,4-difluorophenyl)thiazole]

These molecules were tested on C. sake (assay: Broth microdilution MIC/MFC, clinical isolate). Conditions: Fermentozyma sake; C. sake clinical strain; read-out: MFC.
Format: cell-based
Source text: as §1, §2

Row | SMILES | MFC
13 | Fc1ccc(-c2csc(N/N=C/C3CC3)n2)c(F)c1 [Compound 3g, (E)-2-(2-(Cyclopropylmethylene)hydrazinyl)-4-(2,4-difluorophenyl)thiazole] | 3.91 µg/mL (≈ 14 µM)

Same assay, conditions: Fermentozyma sake; C. sake clinical strain; read-out: MIC

Row | MIC | SMILES
14 | 0.48 µg/mL (≈ 1.72 µM) | Fc1ccc(-c2csc(N/N=C/C3CC3)n2)c(F)c1 [Compound 3g, (E)-2-(2-(Cyclopropylmethylene)hydrazinyl)-4-(2,4-difluorophenyl)thiazole]

Each molecule was assayed on C. albicans (assay: Broth microdilution MIC/MFC, clinical isolate). Conditions: Candida albicans; C. albicans clinical strain; read-out: MFC.
Format: cell-based
Source text: as §1, §2

Row | SMILES | MFC
15 | Fc1ccc(-c2csc(N/N=C/C3CC3)n2)c(F)c1 [Compound 3g, (E)-2-(2-(Cyclopropylmethylene)hydrazinyl)-4-(2,4-difluorophenyl)thiazole] | 1.95 µg/mL (≈ 6.98 µM)

Same assay, conditions: Candida albicans; C. albicans clinical strain; read-out: MIC

Row | MIC | SMILES
16 | 0.48 µg/mL (≈ 1.72 µM) | Fc1ccc(-c2csc(N/N=C/C3CC3)n2)c(F)c1 [Compound 3g, (E)-2-(2-(Cyclopropylmethylene)hydrazinyl)-4-(2,4-difluorophenyl)thiazole]

What follows are molecules tested on C. kefyr (assay: Broth microdilution MIC/MFC, clinical isolate). Conditions: Kluyveromyces marxianus; C. kefyr clinical strain; read-out: MFC.
Format: cell-based
Source text: as §1, §2

Row | SMILES | MFC
17 | Fc1ccc(-c2csc(N/N=C/C3CC3)n2)c(F)c1 [Compound 3g, (E)-2-(2-(Cyclopropylmethylene)hydrazinyl)-4-(2,4-difluorophenyl)thiazole] | 31.2 µg/mL (≈ 112 µM)

Same assay, conditions: Kluyveromyces marxianus; C. kefyr clinical strain; read-out: MIC

Row | MIC | SMILES
18 | 31.2 µg/mL (≈ 112 µM) | Fc1ccc(-c2csc(N/N=C/C3CC3)n2)c(F)c1 [Compound 3g, (E)-2-(2-(Cyclopropylmethylene)hydrazinyl)-4-(2,4-difluorophenyl)thiazole]

Each molecule was assayed on C. inconspicua (assay: Broth microdilution MIC/MFC, clinical isolate). Conditions: Pichia inconspicua; C. inconspicua clinical strain; read-out: MFC.
Format: cell-based
Source text: as §1, §2

Row | SMILES | MFC
19 | Fc1ccc(-c2csc(N/N=C/C3CC3)n2)c(F)c1 [Compound 3g, (E)-2-(2-(Cyclopropylmethylene)hydrazinyl)-4-(2,4-difluorophenyl)thiazole] | 1.98 µg/mL (≈ 7.09 µM)

Same assay, conditions: Pichia inconspicua; C. inconspicua clinical strain; read-out: MIC

Row | MIC | SMILES
20 | 0.48 µg/mL (≈ 1.72 µM) | Fc1ccc(-c2csc(N/N=C/C3CC3)n2)c(F)c1 [Compound 3g, (E)-2-(2-(Cyclopropylmethylene)hydrazinyl)-4-(2,4-difluorophenyl)thiazole]

The molecules below were run on C. krusei (assay: Broth microdilution MIC/MFC, clinical isolate). Conditions: Pichia kudriavzevii; C. krusei clinical strain; read-out: MFC.
Format: cell-based
Source text: as §1, §2

Row | SMILES | MFC
21 | Fc1ccc(-c2csc(N/N=C/C3CC3)n2)c(F)c1 [Compound 3g, (E)-2-(2-(Cyclopropylmethylene)hydrazinyl)-4-(2,4-difluorophenyl)thiazole] | 0.48 µg/mL (≈ 1.72 µM)

Same assay, conditions: Pichia kudriavzevii; C. krusei clinical strain; read-out: MIC

Row | MIC | SMILES
22 | 0.03 µg/mL (≈ 0.107 µM) | Fc1ccc(-c2csc(N/N=C/C3CC3)n2)c(F)c1 [Compound 3g, (E)-2-(2-(Cyclopropylmethylene)hydrazinyl)-4-(2,4-difluorophenyl)thiazole]

The molecules below were run on C. glabrata (assay: Broth microdilution MIC/MFC, clinical isolate). Conditions: Nakaseomyces glabratus; C. glabrata clinical strain; read-out: MFC.
Format: cell-based
Source text: as §1, §2

Row | SMILES | MFC
23 | Fc1ccc(-c2csc(N/N=C/C3CC3)n2)c(F)c1 [Compound 3g, (E)-2-(2-(Cyclopropylmethylene)hydrazinyl)-4-(2,4-difluorophenyl)thiazole] | > 1000 µg/mL

Same assay, conditions: Nakaseomyces glabratus; C. glabrata clinical strain; read-out: MIC

Row | MIC | SMILES
24 | 15.6 µg/mL (≈ 55.9 µM) | Fc1ccc(-c2csc(N/N=C/C3CC3)n2)c(F)c1 [Compound 3g, (E)-2-(2-(Cyclopropylmethylene)hydrazinyl)-4-(2,4-difluorophenyl)thiazole]

Each molecule was assayed on C. lambica (assay: Broth microdilution MIC/MFC, clinical isolate). Conditions: Pichia fermentans; C. lambica clinical strain; read-out: MFC.
Format: cell-based
Source text: as §1, §2

Row | SMILES | MFC
25 | Fc1ccc(-c2csc(N/N=C/C3CC3)n2)c(F)c1 [Compound 3g, (E)-2-(2-(Cyclopropylmethylene)hydrazinyl)-4-(2,4-difluorophenyl)thiazole] | > 1000 µg/mL

Same assay, conditions: Pichia fermentans; C. lambica clinical strain; read-out: MIC

Row | MIC | SMILES
26 | 125 µg/mL (≈ 448 µM) | Fc1ccc(-c2csc(N/N=C/C3CC3)n2)c(F)c1 [Compound 3g, (E)-2-(2-(Cyclopropylmethylene)hydrazinyl)-4-(2,4-difluorophenyl)thiazole]

What follows are molecules tested on C. guilliermondii (assay: Broth microdilution MIC/MFC, clinical isolate). Conditions: Meyerozyma guilliermondii; C. guilliermondii clinical strain; read-out: MFC.
Format: cell-based
Source text: as §1, §2

Row | SMILES | MFC
27 | Fc1ccc(-c2csc(N/N=C/C3CC3)n2)c(F)c1 [Compound 3g, (E)-2-(2-(Cyclopropylmethylene)hydrazinyl)-4-(2,4-difluorophenyl)thiazole] | 31.2 µg/mL (≈ 112 µM)

Same assay, conditions: Meyerozyma guilliermondii; C. guilliermondii clinical strain; read-out: MIC

Row | MIC | SMILES
28 | 7.81 µg/mL (≈ 28 µM) | Fc1ccc(-c2csc(N/N=C/C3CC3)n2)c(F)c1 [Compound 3g, (E)-2-(2-(Cyclopropylmethylene)hydrazinyl)-4-(2,4-difluorophenyl)thiazole]

What follows are molecules tested on Toxoplasma gondii RH strain (assay: [3H]-uracil incorporation assay in VERO host cells). Conditions: Toxoplasma gondii, Vero, read-out: Proliferation of Toxoplasma gondii RH strain ± SD.

Row | SMILES | activity at 0.98 µg/mL | activity at 1.95 µg/mL | activity at 3.91 µg/mL | activity at 7.81 µg/mL | activity at 15.63 µg/mL | activity at 20 µg/mL
29 | Fc1ccc(-c2csc(N/N=C/C3CC3)n2)c(F)c1 [Compound 3g, (E)-2-(2-(Cyclopropylmethylene)hydrazinyl)-4-(2,4-difluorophenyl)thiazole] | 105 ± 9.98% | 91.8 ± 1.12% | 81.4 ± 1.6% | 78.6 ± 4.6% | 58.1 ± 2.94% | 60.9 ± 3.81%
